# In patent publication US20250101062A1, “ANTIMICROBIAL PEPTIDES” (Board of Regents of the University of Nebraska, priority 2023, published 2025):
# Read-outs that look alike come from different tables or passages of the source. Where no end group is shown, it is not given here.
# Assays:
# Assay type in all cases: cell-based, Staphylococcus aureus
# MRSA USA300 [1] = experiment: Membrane permeabilization (propidium iodide)
# Description: The peptide ladder was prepared as described for the antibacterial assay with 10 μL of solution in a black COSTAR® 96-well plate. PI (MP Biomedicals, Solon, OH) was prepared in the dark and dissolved in dimethylsulfoxide (Thermo Fisher Scientific, NY) to 20 mM. This PI stock solution was further diluted to 1 mM with water, and 2 μL of 1 mM PI was added to each well. Exponential-phase MRSA USA300 was diluted to OD600 0.11 with TSB, and 88 μL was added to each well. The plate was incubated at 37° C. with continuous shaking in a FLUOstar® Omega (BMG LABTECH, NC) microplate reader. The sample was read every 5 minutes for 24 cycles with excitation and emission wavelengths of 584 and 620 nm, respectively.
# Bacterial membrane permeation was conducted (Yeaman, et al. (1998) J. Clin. Invest., 101(1):178-87). In brief, the peptide ladder was prepared as described for the antibacterial assay with 10 μL in a black COSTAR 96-well plate. Propidium iodide (PI) (MP Biomedicals, Solon, OH) was prepared in the dark and dissolved in DMSO (Thermo Fisher Scientific, NY) to 20 mM. This PI stock solution was further diluted to 1 mM with water and 2 μL of 1 mM PI was added to each well. Exponential phase MRSA USA300 or P. aeruginosa E411-17 was diluted to OD600 0.11 with tryptic soy broth (TSB) and 88 μL was added to each well. The plate was incubated at 37° C. with continuous shaking in a FLUOstar® Omega (BMG LABTECH, NC) microplate reader. The sample was read every 5 minutes for 24 cycles with excitation and emission wavelengths at 584 nm and 620 nm, respectively.
# S. aureus USA300 LAC = experiment: microbe, parasite or virus in culture
# How it was run: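 Broth microdilution with twofold peptide dilutions, using exponential-phase bacteria at about 10^5 CFU/mL in MHB, incubated overnight at 37 °C and read at OD600. MIC, reported as a range, is the peptide concentration with no growth. Some tests used diluted MHB/TSB/LB, adjusted pH, or added NaCl or human serum.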
# MRSA USA300 [2] = experiment: Membrane depolarization (DiBAC4(3))
# Description: An overnight culture of MRSA USA300 was inoculated into TSB and grown to an exponential phase. Bacteria were washed with 1×PBS, resuspended in twice the volume of 1×PBS containing 25 mM glucose, and incubated at 37° C. for 15 minutes. Then, 500 nM (final concentration) of DiBAC4 (3) bis(1, 3-dibutylbarbituric acid) trimethine oxonol (ANASPEC, CA) was added, and the mixture was vortexed gently. Aliquots of 90 μL of the energized bacteria solution were loaded into the 96-well plates (Corning COSTAR, AZ) and placed in a FLUOstar® Omega microplate reader (BMG LABTECH, NC). Fluorescence was read for 20 minutes at excitation and emission wavelengths of 485 and 520 nm, respectively. Then, 10 μL of peptide solutions was added, and fluorescence readings were recorded for 40 minutes. Triton® X-100 (0.1%) was used as the positive control.
# Bacterial membrane depolarization was conducted (Marks, et al. (2013) PLoS One 8(5):e63158). […] Aliquots of 90 μL of the energized bacteria solution were loaded to the 96 well plates (Corning COSTAR, AZ) and placed in a FLUOstar® Omega microplate reader (BMG LABTECH, NC). Fluorescence was read for 20 minutes at excitation and emission wavelengths of 485 nm and 520 nm, respectively. Then, 10 μL of peptide solutions was added and fluorescence readings were recorded for 40 minutes. […]
molecule,measurement,setting,value
CCCCCCCCCC(=O)N[C@@H](Cc1c[nH]c2ccccc12)C(=O)N[C@H](CC(N)=O)C(=O)N[C@@H](CC(=O)O)C(=O)N[C@@H]1C(=O)NCC(=O)N[C@@H](CCCN)C(=O)N[C@@H](CC(=O)O)C(=O)N[C@H](C)C(=O)N[C@@H](CC(=O)O)C(=O)NCC(=O)N[C@H](CO)C(=O)N[C@@H]([C@H](C)CC(=O)O)C(=O)N[C@@H](CC(=O)c2ccccc2N)C(=O)O[C@@H]1C [Daptomycin],membrane permeabilization,"MRSA USA300 [1]; Example 1, 1×MIC",membrane permeabilization after a delay
same,MIC,"S. aureus USA300 LAC; Staphylococcus aureus, MRSA / USA300, MRSA in MHB, 10% serum, read-out: Antimicrobial activity (MIC)",1 µM
same,MIC,"S. aureus USA300 LAC; Staphylococcus aureus, MRSA / USA300, MRSA in MHB, 20% serum, read-out: Antimicrobial activity (MIC)",1 µM
same,MIC,"S. aureus USA300 LAC; Staphylococcus aureus, MRSA / USA300, MRSA in MHB, NaCl (150 mM), read-out: Antimicrobial activity (MIC)",1 µM
same,MIC,"S. aureus USA300 LAC; Staphylococcus aureus, MRSA / USA300, pH 6.3, MRSA in MHB, pH 6.3, read-out: Antimicrobial activity (MIC)",1 µM
same,MIC,"S. aureus USA300 LAC; Staphylococcus aureus, MRSA / USA300, pH 7.2, MRSA in MHB, pH 7.2, read-out: Antimicrobial activity (MIC)",1 µM
same,MIC,"S. aureus USA300 LAC; Staphylococcus aureus, USA300, Human serum 5%, read-out: Antimicrobial activity (MIC)",0.5 to 1 µM
same,MIC,"S. aureus USA300 LAC; Staphylococcus aureus, USA300, Human serum 10%, read-out: Antimicrobial activity (MIC)",0.5 to 1 µM
same,MIC,"S. aureus USA300 LAC; Staphylococcus aureus, USA300, MHB, Table 8, read-out: Antimicrobial activity (MIC) S. aureus USA300",0.5 to 1 µM
same,MIC,"S. aureus USA300 LAC; Staphylococcus aureus, USA300, NaCl (150 mM), read-out: Antimicrobial activity (MIC)",0.5 µM
same,MIC,"S. aureus USA300 LAC; Staphylococcus aureus, USA300, pH 6.21, pH 6.21, read-out: Antimicrobial activity (MIC)",0.5 to 1 µM
same,MIC,"S. aureus USA300 LAC; Staphylococcus aureus, USA300, pH 7.22, pH 7.22, read-out: Antimicrobial activity (MIC)",0.5 µM
same,MIC,"S. aureus USA300 LAC; Staphylococcus aureus, USA300, pH 8.13, pH 8.13, read-out: Antimicrobial activity (MIC)",0.5 µM
CC[C@H](C)[C@H](NC(=O)[C@H](CCCCN)NC(=O)[C@H](CCC(=O)O)NC(=O)[C@H](CCCCN)NC(=O)[C@H](CO)NC(=O)[C@H](CCCCN)NC(=O)[C@H](CCCNC(=N)N)NC(=O)[C@H](Cc1ccccc1)NC(=O)[C@H](Cc1ccccc1)NC(=O)[C@H](CC(=O)O)NC(=O)CNC(=O)[C@H](CC(C)C)NC(=O)[C@@H](N)CC(C)C)C(=O)NCC(=O)N[C@@H](CCCCN)C(=O)N[C@@H](CCC(=O)O)C(=O)N[C@@H](Cc1ccccc1)C(=O)N[C@@H](CCCCN)C(=O)N[C@@H](CCCNC(=N)N)C(=O)N[C@H](C(=O)N[C@H](C(=O)N[C@@H](CCC(N)=O)C(=O)N[C@@H](CCCNC(=N)N)C(=O)N[C@H](C(=O)N[C@@H](CCCCN)C(=O)N[C@@H](CC(=O)O)C(=O)N[C@@H](Cc1ccccc1)C(=O)N[C@@H](CC(C)C)C(=O)N[C@@H](CCCNC(=N)N)C(=O)N[C@@H](CC(N)=O)C(=O)N[C@@H](CC(C)C)C(=O)N[C@H](C(=O)N1CCC[C@H]1C(=O)N[C@@H](CCCNC(=N)N)C(=O)N[C@H](C(=O)N[C@@H](CCC(=O)O)C(=O)N[C@@H](CO)C(=O)O)[C@@H](C)O)C(C)C)[C@@H](C)CC)C(C)C)[C@@H](C)CC [LL-37],membrane depolarization,"MRSA USA300 [2]; Example 2, PBS with glucose",most powerful in membrane depolarization
same,membrane permeabilization,"MRSA USA300 [1]; Example 2, TSB, 1-32 μM",failed to do so
same,MIC,"S. aureus USA300 LAC; DMEM, read-out: Antimicrobial activity (MIC)",≤4 µM
same,MIC,"S. aureus USA300 LAC; Human serum 5%, read-out: Antimicrobial activity (MIC)",>32 µM
same,MIC,"S. aureus USA300 LAC; Human serum 10%, read-out: Antimicrobial activity (MIC)",>32 µM
same,Antimicrobial activity (MIC),S. aureus USA300 LAC; LB 12.5%,>32 µM
same,Antimicrobial activity (MIC),S. aureus USA300 LAC; LB 25%,>32 µM
same,Antimicrobial activity (MIC),S. aureus USA300 LAC; LB 50%,>32 µM
same,Antimicrobial activity (MIC),S. aureus USA300 LAC; LB 100%,>32 µM
same,Antimicrobial activity (MIC),S. aureus USA300 LAC; MHB 50%,32 µM
same,Antimicrobial activity (MIC),S. aureus USA300 LAC; MHB 100%,did not display any activity
same,MIC,"S. aureus USA300 LAC; MHB, Table 8, read-out: Antimicrobial activity (MIC) S. aureus USA300",>32 µM
same,MIC,"S. aureus USA300 LAC; NaCl (150 mM), read-out: Antimicrobial activity (MIC)",>32 µM
same,MIC,"S. aureus USA300 LAC; RPMI 1640, read-out: Antimicrobial activity (MIC)",≤4 µM
same,Antimicrobial activity (MIC),S. aureus USA300 LAC; TSB 12.5%,>32 µM
same,Antimicrobial activity (MIC),S. aureus USA300 LAC; TSB 25%,>32 µM
same,Antimicrobial activity (MIC),S. aureus USA300 LAC; TSB 50%,>32 µM
same,Antimicrobial activity (MIC),S. aureus USA300 LAC; TSB 100%,>32 µM
same,MIC,"S. aureus USA300 LAC; pH 6.21, read-out: Antimicrobial activity (MIC)",>32 µM
same,MIC,"S. aureus USA300 LAC; pH 7.22, read-out: Antimicrobial activity (MIC)",>32 µM
RRWWRWWR-NH2 [W543],membrane depolarization,"MRSA USA300 [2]; Example 1, highest concentration tested",did not show a clear effect
same,membrane permeabilization,"MRSA USA300 [1]; Example 1, 1×MIC",clear fluorescence increase
same,change of MIC / activity,"S. aureus USA300 LAC; MRSA in MHB, 10% human serum",eightfold
same,effect on MIC,"S. aureus USA300 LAC; MRSA in MHB, addition of 150 mM NaCl",did not alter the MIC
same,increase of MIC,"S. aureus USA300 LAC; MRSA in MHB, decrease of pH from 7.2 to 6.3",twofold
same,Activity (MIC) S. aureus,S. aureus USA300 LAC; USA300,4 to 8 µM
same,Antimicrobial activity (MIC),S. aureus USA300 LAC; USA300,64 µM
same,Antimicrobial activity (MIC),"S. aureus USA300 LAC; USA300, pH 6.3",16 µM
same,concentration with no growth,S. aureus USA300 LAC; without protease,8 µM
